Experimental data reported in patent publication US4613608A (priority 1982, dated 1986).
Values after ≈ are worked out from the molar mass of the structure shown.

Experiments:
[1] = tested on: large coronary artery; assay: tissue or blood; assay type: cell-based, dogs; details: for EC50: Canis lupus familiaris, read-out: ED50 Large (L); for S/L: dog, coronary artery strips
[2] = tested on: small coronary artery; assay: tissue or blood; assay type: cell-based, dogs; details: Canis lupus familiaris, read-out: ED50 Small (S)

| Compound | EC50 [1] | S/L [1] | EC50 [2] |
| --- | --- | --- | --- |
| O=[N+]([O-])OCc1cccnc1 [Compound A, 3-Nitroxymethylpyridine, reference compound] | 0.08 µg/mL (≈ 0.519 µM) | 23.8 | 1.9 µg/mL (≈ 12.3 µM) |
| O=[N+]([O-])OCCCc1ccncc1 [Compound C, 4-(3-Nitroxypropyl)pyridine] | 0.0125 µg/mL (≈ 0.0686 µM) | > 800 | > 10 µg/mL |
| O=[N+]([O-])OCc1cccc(Cl)n1 [Compound D, 2-Nitroxymethyl-6-chloropyridine] | 0.0067 µg/mL (≈ 0.0355 µM) | 925 | 6.2 µg/mL (≈ 32.9 µM) |
